# From patent publication US9963442B2, “Pyridones as herbicides” (E I DU PONT DE NEMOURS AND COMPANY, priority 2014, dated 2018)
# Assays:
# Format in all cases: in vivo
# [1] = test system: Italian ryegrass (Lolium multiflorum); experiment: Test A preemergence, directed soil spray; settings: approx. 10 days
# In short: (§1)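 Visual injury score, 0–100 scale (100 = complete control), versus untreated plants after ~10 days greenhouse. Pre: directed soil spray on seeded loam/sand. Post: 2–10 cm plants, 1–2 leaves. Solvent/surfactant formulation.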
# [2] = test system: barnyardgrass (Echinochloa crus-galli); experiment: Test A preemergence, directed soil spray; settings: approx. 10 days
# In short: as §1
# [3] = test system: giant foxtail (Setaria faberii); experiment: Test A preemergence, directed soil spray; settings: approx. 10 days
# In short: as §1
# kochia (Kochia scoparia) = experiment: Test A preemergence, directed soil spray; settings: approx. 10 days
# In short: as §1
# [4] = test system: pigweed (Amaranthus retroflexus); experiment: Test A preemergence, directed soil spray; settings: approx. 10 days
# In short: as §1
# [5] = test system: ragweed (common ragweed, Ambrosia elatior); experiment: Test A preemergence, directed soil spray; settings: approx. 10 days
# In short: as §1
# [6] = test system: blackgrass (Alopecurus myosuroides); experiment: Test C preemergence; settings: scale 0 to 100, 0 is no effect, 100 is complete control
# In short: (§2)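 Plants are treated pre- or postemergence with test chemical in a solvent mixture plus surfactant and kept in a greenhouse for 13–15 days. Injury is then rated visually relative to untreated plants on a 0–100 scale.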
# [7] = test system: galium (catchweed bedstraw, Galium aparine); experiment: Test C preemergence; settings: scale 0 to 100, 0 is no effect, 100 is complete control
# In short: as §2
# [8] = test system: johnsongrass (Sorghum halepense); experiment: Test C preemergence; settings: scale 0 to 100, 0 is no effect, 100 is complete control
# In short: as §2
# [9] = test system: lambsquarters (Chenopodium album); experiment: Test C preemergence; settings: scale 0 to 100, 0 is no effect, 100 is complete control
# In short: as §2
# [10] = test system: large (Lg) crabgrass (Digitaria sanguinalis); experiment: Test C preemergence; settings: scale 0 to 100, 0 is no effect, 100 is complete control
# In short: as §2
# [11] = test system: oilseed rape (Brassica napus); experiment: Test C preemergence; settings: scale 0 to 100, 0 is no effect, 100 is complete control
# In short: as §2
# [12] = test system: ragweed (common ragweed, Ambrosia elatior); experiment: Test C preemergence; settings: scale 0 to 100, 0 is no effect, 100 is complete control
# In short: as §2
# soybean (Glycine max) = experiment: Test C preemergence; settings: scale 0 to 100, 0 is no effect, 100 is complete control
# In short: as §2
# [13] = test system: velvetleaf (Abutilon theophrasti); experiment: Test C preemergence; settings: scale 0 to 100, 0 is no effect, 100 is complete control
# In short: as §2
# [14] = test system: waterhemp (common waterhemp, Amaranthus rudis); experiment: Test C preemergence; settings: scale 0 to 100, 0 is no effect, 100 is complete control
# In short: as §2
# [15] = test system: winter wheat (Triticum aestivum); experiment: Test C preemergence; settings: scale 0 to 100, 0 is no effect, 100 is complete control
# In short: as §2
smiles,measurement,setting,value
O=c1cccc(Oc2ncc(Cl)cn2)n1-c1ncc(Cl)cn1 [Compound 6],"Plant response rating (0 to 100 scale, 0 no effect, 100 complete control), Ryegrass, Italian",[1]; 31 g ai/ha,0
same,"Plant response rating (0 to 100 scale, 0 no effect, 100 complete control), Ryegrass, Italian",[1]; 125 g ai/ha,10
same,"Plant response rating (0 to 100 scale, 0 no effect, 100 complete control), Barnyardgrass",[2]; 31 g ai/ha,20
same,"Plant response rating (0 to 100 scale, 0 no effect, 100 complete control), Barnyardgrass",[2]; 125 g ai/ha,70
same,"Plant response rating (0 to 100 scale, 0 no effect, 100 complete control), Foxtail, Giant",[3]; 31 g ai/ha,60
same,"Plant response rating (0 to 100 scale, 0 no effect, 100 complete control), Foxtail, Giant",[3]; 125 g ai/ha,100
same,"Plant response rating (0 to 100 scale, 0 no effect, 100 complete control), Kochia",kochia (Kochia scoparia); 31 g ai/ha,60
same,"Plant response rating (0 to 100 scale, 0 no effect, 100 complete control), Kochia",kochia (Kochia scoparia); 125 g ai/ha,100
same,"Plant response rating (0 to 100 scale, 0 no effect, 100 complete control), Pigweed",[4]; 31 g ai/ha,80
same,"Plant response rating (0 to 100 scale, 0 no effect, 100 complete control), Pigweed",[4]; 125 g ai/ha,100
same,"Plant response rating (0 to 100 scale, 0 no effect, 100 complete control), Ragweed",[5]; 31 g ai/ha,70
same,"Plant response rating (0 to 100 scale, 0 no effect, 100 complete control), Ragweed",[5]; 125 g ai/ha,80
same,"Plant response rating, Blackgrass",[6]; 16 g ai/ha,0
same,"Plant response rating, Blackgrass",[6]; 31 g ai/ha,0
same,"Plant response rating, Blackgrass",[6]; 62 g ai/ha,5
same,"Plant response rating, Blackgrass",[6]; 125 g ai/ha,5
same,"Plant response rating, Galium",[7]; 16 g ai/ha,80
same,"Plant response rating, Galium",[7]; 31 g ai/ha,90
same,"Plant response rating, Galium",[7]; 62 g ai/ha,90
same,"Plant response rating, Galium",[7]; 125 g ai/ha,90
same,"Plant response rating, Johnsongrass",[8]; 16 g ai/ha,0
same,"Plant response rating, Johnsongrass",[8]; 31 g ai/ha,0
same,"Plant response rating, Johnsongrass",[8]; 62 g ai/ha,5
same,"Plant response rating, Johnsongrass",[8]; 125 g ai/ha,10
same,"Plant response rating, Lambsquarters",[9]; 16 g ai/ha,40
same,"Plant response rating, Lambsquarters",[9]; 31 g ai/ha,30
same,"Plant response rating, Lambsquarters",[9]; 62 g ai/ha,65
same,"Plant response rating, Lambsquarters",[9]; 125 g ai/ha,85
same,"Plant response rating, Crabgrass, Large",[10]; 16 g ai/ha,5
same,"Plant response rating, Crabgrass, Large",[10]; 31 g ai/ha,50
same,"Plant response rating, Crabgrass, Large",[10]; 62 g ai/ha,90
same,"Plant response rating, Crabgrass, Large",[10]; 125 g ai/ha,100
same,"Plant response rating, Oilseed Rape",[11]; 16 g ai/ha,30
same,"Plant response rating, Oilseed Rape",[11]; 31 g ai/ha,90
same,"Plant response rating, Oilseed Rape",[11]; 62 g ai/ha,98
same,"Plant response rating, Oilseed Rape",[11]; 125 g ai/ha,98
same,"Plant response rating, Ragweed",[12]; 16 g ai/ha,25
same,"Plant response rating, Ragweed",[12]; 31 g ai/ha,25
same,"Plant response rating, Ragweed",[12]; 62 g ai/ha,70
same,"Plant response rating, Ragweed",[12]; 125 g ai/ha,85
same,"Plant response rating, Soybean",soybean (Glycine max); 16 g ai/ha,10
same,"Plant response rating, Soybean",soybean (Glycine max); 31 g ai/ha,20
same,"Plant response rating, Soybean",soybean (Glycine max); 125 g ai/ha,75
same,"Plant response rating, Velvetleaf",[13]; 16 g ai/ha,10
same,"Plant response rating, Velvetleaf",[13]; 31 g ai/ha,25
same,"Plant response rating, Velvetleaf",[13]; 62 g ai/ha,40
same,"Plant response rating, Velvetleaf",[13]; 125 g ai/ha,80
same,"Plant response rating, Waterhemp",[14]; 16 g ai/ha,75
same,"Plant response rating, Waterhemp",[14]; 31 g ai/ha,90
same,"Plant response rating, Waterhemp",[14]; 62 g ai/ha,100
same,"Plant response rating, Waterhemp",[14]; 125 g ai/ha,100
same,"Plant response rating, Wheat",[15]; 16 g ai/ha,0
same,"Plant response rating, Wheat",[15]; 31 g ai/ha,0
same,"Plant response rating, Wheat",[15]; 62 g ai/ha,5
same,"Plant response rating, Wheat",[15]; 125 g ai/ha,0
O=c1cccc(Oc2ncc(Cl)cn2)n1-c1ccc(C(F)(F)F)cn1 [Compound 7],"Plant response rating (0 to 100 scale, 0 no effect, 100 complete control), Ryegrass, Italian",[1]; 31 g ai/ha,10
same,"Plant response rating (0 to 100 scale, 0 no effect, 100 complete control), Ryegrass, Italian",[1]; 125 g ai/ha,60
same,"Plant response rating (0 to 100 scale, 0 no effect, 100 complete control), Barnyardgrass",[2]; 31 g ai/ha,20
same,"Plant response rating (0 to 100 scale, 0 no effect, 100 complete control), Barnyardgrass",[2]; 125 g ai/ha,70
same,"Plant response rating (0 to 100 scale, 0 no effect, 100 complete control), Foxtail, Giant",[3]; 31 g ai/ha,60
same,"Plant response rating (0 to 100 scale, 0 no effect, 100 complete control), Foxtail, Giant",[3]; 125 g ai/ha,100
same,"Plant response rating (0 to 100 scale, 0 no effect, 100 complete control), Kochia",kochia (Kochia scoparia); 31 g ai/ha,30
same,"Plant response rating (0 to 100 scale, 0 no effect, 100 complete control), Kochia",kochia (Kochia scoparia); 125 g ai/ha,70
same,"Plant response rating (0 to 100 scale, 0 no effect, 100 complete control), Pigweed",[4]; 31 g ai/ha,100
same,"Plant response rating (0 to 100 scale, 0 no effect, 100 complete control), Pigweed",[4]; 125 g ai/ha,100
same,"Plant response rating (0 to 100 scale, 0 no effect, 100 complete control), Ragweed",[5]; 31 g ai/ha,10
same,"Plant response rating (0 to 100 scale, 0 no effect, 100 complete control), Ragweed",[5]; 125 g ai/ha,70
same,"Plant response rating, Blackgrass",[6]; 16 g ai/ha,0
same,"Plant response rating, Blackgrass",[6]; 31 g ai/ha,0
same,"Plant response rating, Blackgrass",[6]; 62 g ai/ha,30
same,"Plant response rating, Blackgrass",[6]; 125 g ai/ha,85
same,"Plant response rating, Galium",[7]; 16 g ai/ha,0
same,"Plant response rating, Galium",[7]; 31 g ai/ha,50
same,"Plant response rating, Galium",[7]; 62 g ai/ha,98
same,"Plant response rating, Galium",[7]; 125 g ai/ha,100
same,"Plant response rating, Johnsongrass",[8]; 16 g ai/ha,0
same,"Plant response rating, Johnsongrass",[8]; 31 g ai/ha,0
same,"Plant response rating, Johnsongrass",[8]; 62 g ai/ha,10
same,"Plant response rating, Johnsongrass",[8]; 125 g ai/ha,20
same,"Plant response rating, Lambsquarters",[9]; 16 g ai/ha,15
same,"Plant response rating, Lambsquarters",[9]; 31 g ai/ha,40
same,"Plant response rating, Lambsquarters",[9]; 62 g ai/ha,75
same,"Plant response rating, Lambsquarters",[9]; 125 g ai/ha,75
same,"Plant response rating, Crabgrass, Large",[10]; 16 g ai/ha,5
same,"Plant response rating, Crabgrass, Large",[10]; 31 g ai/ha,60
same,"Plant response rating, Crabgrass, Large",[10]; 62 g ai/ha,95
same,"Plant response rating, Crabgrass, Large",[10]; 125 g ai/ha,100
same,"Plant response rating, Oilseed Rape",[11]; 16 g ai/ha,5
same,"Plant response rating, Oilseed Rape",[11]; 31 g ai/ha,35
same,"Plant response rating, Oilseed Rape",[11]; 62 g ai/ha,85
same,"Plant response rating, Oilseed Rape",[11]; 125 g ai/ha,95
same,"Plant response rating, Ragweed",[12]; 16 g ai/ha,35
same,"Plant response rating, Ragweed",[12]; 31 g ai/ha,45
same,"Plant response rating, Ragweed",[12]; 62 g ai/ha,50
same,"Plant response rating, Ragweed",[12]; 125 g ai/ha,40
same,"Plant response rating, Soybean",soybean (Glycine max); 16 g ai/ha,10
same,"Plant response rating, Soybean",soybean (Glycine max); 62 g ai/ha,15
same,"Plant response rating, Soybean",soybean (Glycine max); 125 g ai/ha,50
same,"Plant response rating, Velvetleaf",[13]; 16 g ai/ha,5
same,"Plant response rating, Velvetleaf",[13]; 31 g ai/ha,10
same,"Plant response rating, Velvetleaf",[13]; 62 g ai/ha,35
same,"Plant response rating, Velvetleaf",[13]; 125 g ai/ha,55
same,"Plant response rating, Waterhemp",[14]; 16 g ai/ha,85
same,"Plant response rating, Waterhemp",[14]; 31 g ai/ha,85
same,"Plant response rating, Waterhemp",[14]; 62 g ai/ha,100
same,"Plant response rating, Waterhemp",[14]; 125 g ai/ha,100
same,"Plant response rating, Wheat",[15]; 16 g ai/ha,0
same,"Plant response rating, Wheat",[15]; 31 g ai/ha,0
same,"Plant response rating, Wheat",[15]; 62 g ai/ha,0
same,"Plant response rating, Wheat",[15]; 125 g ai/ha,0
